Measurements from patent US20100093701A1, “COMBINATION THERAPY COMPRISING ANGIOTENSIN RECEPTOR BLOCKERS AND VASOPRESSIN RECEPTOR ANTAGONISTS” (priority 2008, published 2010).

Key:
rat remnant kidney model [1] = assay: Efficacy in rat remnant kidney model of nephropathy (renal mass reduction); format: in vivo; conditions: for Mortality Rates in Remnant Kidney Model / Mortality compared to the vehicle treated group: in drinking water; for Mortality Rates in Remnant Kidney Model: started 21 days after RMR, n=12/group; for Mortality compared to the vehicle treated group: Compound 1 30 mg/kg/d, losartan 10 mg/kg; for percentage of sclerotic glomeruli compared with vehicle: renal histology at termination of the experiment; for number of ED 1 positive cells per field (monocytes/macrophages in the renal interstitium): renal histology at termination, not statistically significant vs vehicle (61±5)
Source text: (§1) The rat remnant kidney model is an animal model of severe progressive renal failure. In this model, a state of severe progressive renal failure is produced by renal mass reduction (RMR) through removal of one kidney and ligation of several branches of the renal artery, resulting in infarction and loss of function of two thirds of the remaining kidney. The procedure creates the conditions of severe hypertension, proteinuria, progressive renal function deterioration, tubulointerstitial damage and glomerulosclerosis (Olson J L, Hostetter T H, Rennke H G, Brenner B M, Venkatachalam M A: “Altered glomerular permselectivity and progressive sclerosis following extreme ablation of renal mass”. Kidney Int 22:112-126, 1982).
Nephropathy is evident as a progressively increasing amount of protein in urine, increases in serum creatinine and increases in arterial pressure. In addition, severe sclerosis of the glomeruli, inflammatory cell infiltration and tubular damage are measurable through histological analysis within 3 months of RMR. These measures form the basis for determining efficacy in the model. Urine protein, serum creatinine and arterial pressure are similarly measured in humans to determine impact of treatments on disease progression.
The aim of this study was to evaluate the effects of Compound 1 compared to an angiotensin receptor blocker (losartan), as well as the combination treatment with Compound 1 and losartan, on proteinuria and renal disease progression in this model. The effectiveness of these agents has been associated with reductions in proteinuria, slowing of the rate of rise in serum creatinine and reduction in glomerular sclerosis and thus slowing of the progression to end stage renal failure.
(§2) Treatment groups (n=12/group) included vehicle; Compound 1 at 30 mg/kg/d; losartan at 10 mg/kg; and losartan at 10 mg/kg+Compound 1 at 30 mg/kg/d. All compounds were administered in drinking water. An additional sham-operated untreated group was also included. Measurements were made at 21 d after RMR but before treatment, and at one and two months of treatment.
At the termination of the experiment kidneys were examined quantitatively for histopathological damage. […] Accumulation of monocytes/macrophages in the renal interstitium was quantified as the number of ED 1 (an antibody to CD68, a monocyte/macrophage specific antigen) positive cells per field.

rat remnant kidney model [2] = assay: Blood pressure in rat remnant kidney model; format: in vivo; conditions: 1- and 2-months of treatment
Source text: as §1
as §2, with “Treatments were started 21 days after RMR, when animals already had overt nephropathy. Treatment” for “Treatment”, “treatment. Mortality was less in the Compound 1, losartan and Compound 1+ losartan groups compared to the vehicle treated group (Table 1). […]” for “treatment.”

remnant kidney model = assay: Water intake and diuresis in remnant kidney model; format: in vivo, rat; conditions: mean ± S.E.
Source text: as §1, §2

[3] = 2 month of treatment, n = 10, 10 and 11
[4] = Pre-treatment (21 d after RMR), n = 12

In the case of `CCCCc1nc(Cl)c(CO)n1Cc1ccc(-c2ccccc2-c2nn[nH]n2)cc1` [losartan], the “Mortality Rates in Remnant Kidney Model” value (rat remnant kidney model [1]; 1 month of treatment) is reported as 12/12, the “Mortality Rates in Remnant Kidney Model” value (rat remnant kidney model [1]; 2 month of treatment) is reported as 2/12 and the “Mortality compared to the vehicle treated group” value (rat remnant kidney model [1]) is reported as “less”. The “serum creatinine compared to the vehicle group” value (rat remnant kidney model [1]; at 1 and 2 months of treatment) was “reduced”, the “statistical significance of the effect on urine protein excretion” value (rat remnant kidney model [1]; at 1 and 2 months of treatment) was “not statistically significant” and the “urine protein excretion compared to the vehicle group” value (rat remnant kidney model [1]; at 1 and 2 months of treatment) was “reduced”. The “percentage of sclerotic glomeruli compared with vehicle” value (rat remnant kidney model [1]) was “significant reduction”, the “number of ED 1 positive cells per field (monocytes/macrophages in the renal interstitium)” value (rat remnant kidney model [1]) was 38±6 positive cells per field and the “arterial pressure compared to vehicle” value (rat remnant kidney model [2]) was “statistically significant decrease”. For the same compound, the diuresis (remnant kidney model; 1 month of treatment, n = 12) was 45 ± 3 mL/24 h, the water intake (remnant kidney model; 1 month of treatment, n = 12) was 77 ± 4 mL/24 h and the diuresis (remnant kidney model; [3]) was 45 ± 4 mL/24 h. The water intake (remnant kidney model; [3]) was 76 ± 5 mL/24 h, the diuresis (remnant kidney model; [4]) was 45 ± 3 mL/24 h and the water intake (remnant kidney model; [4]) was 68 ± 4 mL/24 h. The diuresis (remnant kidney model; basal, n = 12) was 20 ± 1 mL/24 h and the water intake (remnant kidney model; basal, n = 12) was 46 ± 2 mL/24 h.
With `COc1cc(C(=O)N2CC[C@]3(C=C(C(=O)O)CC3)Cc3ccccc32)ccc1NC(=O)c1cc(F)ccc1Cl` [Compound 1] the “Mortality Rates in Remnant Kidney Model” value (rat remnant kidney model [1]; 1 month of treatment) was 12/12, the “Mortality Rates in Remnant Kidney Model” value (rat remnant kidney model [1]; 2 month of treatment) was 2/12 and the “Mortality compared to the vehicle treated group” value (rat remnant kidney model [1]) was “less”. The “serum creatinine compared to the vehicle group” value (rat remnant kidney model [1]; at 1 and 2 months of treatment) was “reduced”, the “urine protein excretion compared to the vehicle group” value (rat remnant kidney model [1]; at 1 and 2 months of treatment) was “reduced” and the “percentage of sclerotic glomeruli compared with vehicle” value (rat remnant kidney model [1]) was “tended to decrease”. The “number of ED 1 positive cells per field (monocytes/macrophages in the renal interstitium)” value (rat remnant kidney model [1]) was 45±5 positive cells per field, the “arterial pressure compared to vehicle” value (rat remnant kidney model [2]) was “tended to decrease” and the diuresis (remnant kidney model; 1 month of treatment, n = 12) was 47 ± 4 mL/24 h. For the same compound, the water intake (remnant kidney model; 1 month of treatment, n = 12) was 70 ± 8 mL/24 h, the diuresis (remnant kidney model; [3]) was 43 ± 5 mL/24 h and the water intake (remnant kidney model; [3]) was 72 ± 10 mL/24 h. The diuresis (remnant kidney model; [4]) was 44 ± 3 mL/24 h, the water intake (remnant kidney model; [4]) was 65 ± 2 mL/24 h and the diuresis (remnant kidney model; basal, n = 12) was 19 ± 1 mL/24 h. The water intake (remnant kidney model; basal, n = 12) was 43 ± 2 mL/24 h.
